Data from publication PMC11579512, “Deoxybouvardin-glucoside induces apoptosis in non-small cell lung cancer cells by targeting EGFR/MET and AKT signaling pathway” (EXCLI Journal, 2024).

Columns and labels:
p-MET (Y1234/1235) = assay: Western blot p-MET (Y1234/1235) in HCC827 and HCC827GR cells; type: cell-based, human; conditions: DBG 3, 6, 12 nM, 48 h
Method: (§1) HaCaT cells were grown in DMEM, whereas HCC827 and HCC827GR cells were grown in RPMI 1640. All culture media were supplemented with FBS (10 %) and P/S (1 %), and the cells were grown at 37 °C in 5 % CO2.
(§2) Cells were lysed in RIPA buffer, and protein concentration was determined using a Bio-Rad DC Protein Assay kit (Bio-Rad, Hercules, CA, USA). Protein samples from the cell lysates were resolved by sodium dodecyl sulfate-polyacrylamide gel electrophoresis and then transferred onto polyvinylidene fluoride membranes. The membranes were blocked with 3 % or 5 % skim milk and then incubated at 4 °C overnight with the indicated primary antibodies, followed by the corresponding horseradish peroxidase-conjugated secondary antibodies at RT for 2 h. Protein bands were visualized using western blotting luminol reagent solution and ImageQuant LAS 500 (GE Healthcare, Uppsala, Sweden). The density of the bands was quantified using ImageJ software (NIH, Bethesda, MD, USA).

AKT1 = target: T1, AKT1 (Homo sapiens, UniProt P31749); assay: In vitro ADP-Glo kinase assay, AKT1; type: biochemical
T1 construct: purchased Promega
Method: (§3) Subsequently, each well was added with ADP-Glo reagent and incubated for another 40 min. After completion of the kinase reaction, each well was added with kinase activity detection reagent and then incubated for 30 min. Liquid was dispensed with I.DOT (Dispendix, Stuttgart, Germany). Luminescence was measured on a Centro LB 960 microplate luminometer (Berthold Technologies).

Bim = assay: Immunoblot Bim in HCC827 and HCC827GR cells; type: cell-based, human; conditions: for Bim protein Ratio: DBG 0 nM 0.47
Method: as §1, §2

MET = target: T2, MET (Homo sapiens, UniProt P08581); assay: In vitro ADP-Glo kinase assay, MET; type: biochemical
T2 construct: purchased Promega
Method: as §3

T2 sequence (P08581 25-1390): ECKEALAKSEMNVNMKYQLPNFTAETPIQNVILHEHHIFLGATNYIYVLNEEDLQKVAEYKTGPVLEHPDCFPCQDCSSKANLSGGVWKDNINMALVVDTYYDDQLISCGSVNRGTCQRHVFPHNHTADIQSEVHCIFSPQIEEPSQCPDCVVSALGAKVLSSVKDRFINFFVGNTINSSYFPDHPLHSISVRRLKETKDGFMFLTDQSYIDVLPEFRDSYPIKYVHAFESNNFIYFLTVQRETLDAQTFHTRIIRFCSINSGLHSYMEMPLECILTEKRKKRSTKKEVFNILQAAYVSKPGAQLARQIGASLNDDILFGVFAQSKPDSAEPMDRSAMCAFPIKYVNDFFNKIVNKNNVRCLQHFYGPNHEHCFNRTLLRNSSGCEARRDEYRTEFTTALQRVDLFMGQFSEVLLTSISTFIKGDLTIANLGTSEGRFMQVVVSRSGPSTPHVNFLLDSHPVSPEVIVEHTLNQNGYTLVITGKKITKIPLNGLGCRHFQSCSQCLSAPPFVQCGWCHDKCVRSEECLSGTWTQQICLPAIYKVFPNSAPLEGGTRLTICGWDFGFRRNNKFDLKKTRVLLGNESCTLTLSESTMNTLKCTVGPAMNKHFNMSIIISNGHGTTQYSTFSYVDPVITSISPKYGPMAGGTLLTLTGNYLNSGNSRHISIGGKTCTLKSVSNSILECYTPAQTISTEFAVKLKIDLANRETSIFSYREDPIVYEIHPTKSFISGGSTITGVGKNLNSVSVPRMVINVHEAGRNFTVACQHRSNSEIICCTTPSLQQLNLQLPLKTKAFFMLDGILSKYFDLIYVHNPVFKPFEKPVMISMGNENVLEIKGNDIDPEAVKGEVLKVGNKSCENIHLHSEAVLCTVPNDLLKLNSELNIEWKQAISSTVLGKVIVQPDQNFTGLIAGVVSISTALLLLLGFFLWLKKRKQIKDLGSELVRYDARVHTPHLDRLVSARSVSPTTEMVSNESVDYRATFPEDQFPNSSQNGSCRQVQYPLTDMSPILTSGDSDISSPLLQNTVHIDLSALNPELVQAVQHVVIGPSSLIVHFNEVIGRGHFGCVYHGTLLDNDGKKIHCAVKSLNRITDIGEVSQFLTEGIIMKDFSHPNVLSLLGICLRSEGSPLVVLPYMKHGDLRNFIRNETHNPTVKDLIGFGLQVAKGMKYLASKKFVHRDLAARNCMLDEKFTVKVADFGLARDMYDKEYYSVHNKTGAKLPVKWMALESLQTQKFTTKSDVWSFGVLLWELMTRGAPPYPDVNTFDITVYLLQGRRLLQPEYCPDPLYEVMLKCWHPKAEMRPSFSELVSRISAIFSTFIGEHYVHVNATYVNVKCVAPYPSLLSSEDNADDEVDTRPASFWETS
T1 sequence (P31749 whole entry): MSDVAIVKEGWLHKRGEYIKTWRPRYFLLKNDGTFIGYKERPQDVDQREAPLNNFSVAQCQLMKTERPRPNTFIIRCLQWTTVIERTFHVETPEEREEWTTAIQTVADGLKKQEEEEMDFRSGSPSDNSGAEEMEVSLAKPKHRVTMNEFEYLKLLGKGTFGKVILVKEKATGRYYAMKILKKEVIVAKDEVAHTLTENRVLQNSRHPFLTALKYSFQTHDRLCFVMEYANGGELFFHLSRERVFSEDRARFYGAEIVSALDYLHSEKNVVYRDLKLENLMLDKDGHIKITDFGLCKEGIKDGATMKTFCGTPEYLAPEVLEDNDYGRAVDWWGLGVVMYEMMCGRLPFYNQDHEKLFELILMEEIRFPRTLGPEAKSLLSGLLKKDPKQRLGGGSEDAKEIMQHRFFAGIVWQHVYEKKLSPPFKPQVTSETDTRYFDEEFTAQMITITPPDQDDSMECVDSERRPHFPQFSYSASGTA

Question: For `COc1ccc(C[C@H]2C(=O)N[C@@H](C)C(=O)N(C)[C@H]3Cc4ccc(cc4)Oc4cc(ccc4O[C@@H]4O[C@H](CO)[C@@H](O)[C@H](O)[C@H]4O)C[C@@H](C(=O)N[C@H](C)C(=O)N[C@@H](C)C(=O)N2C)N(C)C3=O)cc1` [DBG, deoxybouvardin glucoside], which “phosphorylation level of MET” value (p-MET (Y1234/1235)) is on record?
Answer: decreased

Question: And the IC50 (AKT1; ADP-Glo, AKT1 10 ng, RT, 60 min, luminescence, n=3)?
Answer: 6.86 nM

Question: What about the “kinase activity, in words” value (AKT1; DBG 3, 6, 12 nM) of the same compound?
Answer: significantly inhibited

Question: And the Bim protein/actin (Bim; HCC827, DBG 3 nM, DBG 0 nM 0.53)?
Answer: 0.53

Question: What about the “Bim protein Ratio” value (Bim; HCC827, DBG 3 nM, relative to DBG 12 nM = 1.00) of the same compound?
Answer: 0.48

Question: And the Bim protein/actin (Bim; HCC827, DBG 6 nM, DBG 0 nM 0.53)?
Answer: 0.73

Question: And the “Bim protein Ratio” value (Bim; HCC827, DBG 6 nM, relative to DBG 12 nM = 1.00)?
Answer: 0.65

Question: And the “Bim protein Ratio” value (Bim; HCC827, DBG 12 nM (reference of the ratio, 1.00))?
Answer: 1.00

Question: What about the Bim protein/actin (Bim; HCC827, DBG 12 nM, DBG 0 nM 0.53) of the same compound?
Answer: 1.12

Question: And the Bim protein/actin (Bim; HCC827GR, DBG 3 nM, DBG 0 nM 0.15)?
Answer: 0.23

Question: What about the “level of Bim” value (Bim; NSCLC cells, DBG) of the same compound?
Answer: increased

Question: What about the IC50 (MET; ADP-Glo, MET 4 ng, RT, 60 min, luminescence, n=3) of the same compound?
Answer: 7.26 nM

Question: What about the “kinase activity, in words” value (MET; DBG 3, 6, 12 nM) of the same compound?
Answer: significantly inhibited
